Measurements as given in patent publication US9340585B2, “Competence stimulating peptide” (INSTITUT NATIONAL DE LA RECHERCHE AGRONOMIQUE, priority 2009, dated 2016).
Where no end group is shown, it is not given here. The star is where a group is joined. Cam = NC(=O)C*

What was measured:
[1] = test system: strain deleted for the papR gene; assay: Transformation assay: peptide added to culture of papR-deleted strain in CDM; format: cell-based, S. thermophilus; conditions: for Competence: peptide stimulates competence, YES/NO
Description: (§1) S. thermophilus cells are grown overnight at 42° C. in CDM. The culture is then diluted in CDM at an OD600 0.05. Sixty minutes after dilution, the competence stimulating peptide (CSP), which is the mature peptide comprising SEQ ID No1 or fragments or derivatives of SEQ ID No1 that allow to induce competence in S. thermophilus, is added to the culture at a final concentration of 1 μM. Ten minutes later, 100 μl of the culture containing the CSP is mixed with 1 μg of DNA and incubated for 2 hours at 28° C. when mixed with a thermosensitive replicative plasmid DNA or 1 hour at 42° C. when mixed with chromosomal DNA or PCR fragments, before being serially diluted and spread on M17lac plates with the appropriate antibiotic.
The inventors tested the activity of fragments of SEQ ID No1 using a strain deleted for the papR gene using the protocol described in part 8. The inventors thus synthesized different fragments of SEQ ID No1 in order to test their biological activity. Fragments were synthesized as below:
(§2) To test the biological activity of those fragments, peptides were added to a culture of a strain deleted for the papR gene at a final concentration of 1 μM, 1 hour after the dilution of the culture at an OD600 of 0.05 in a chemical defined medium (CDM). Transformation assays were performed with 100 μl of cells with 1 μg of plasmid and or chromosomal DNA.

[2] = test system: S. thermophilus strain CNRZ1066; assay: Transformation assay: peptide added to culture of strain CNRZ1066; format: cell-based
Description: as §1, §2
(§3) S. thermophilus strain LMG18311 is naturally poorly competent and strain CNRZ1066 is naturally not competent. However, complementation of both strains with a plasmid that overexpresses the papR gene makes them competent. […]

[3] = test system: S. thermophilus strain LMG18311; assay: Transformation assay: peptide added to culture of strain LMG18311; format: cell-based
Description: as §1, §2, §3

[4] = Chromosomal transforming DNA 1 μg, peptide 1 μM, fragment comparison
[5] = Chromosomal transforming DNA, alkylation comparison

LPYFAGCL (Fragment of SEQ ID N07) [SEQ ID N^o12]
numbers of transformants obtained with 100 μl of competent cells [1, 4]: 41

PYFAGCL (Fragment of SEQ ID N07) [SEQ ID N^o13]
numbers of transformants obtained with 100 μl of competent cells [1, 4]: 0 | numbers of transformants obtained with 100 μl of competent cells ([1]; Plasmid transforming DNA 1 μg, peptide 1 μM, fragment comparison): 0

IAILPYFAGC*L (IAILPYFAGC(Cam)L; listed as Streptococcus thermophilus) [Alkylated SEQ ID N^o7]
numbers of transformants obtained with 100 μl of competent cells [1, 5]: 0 | numbers of transformants obtained with 100 μl of competent cells ([1]; Plasmid transforming DNA, alkylation comparison): 2

IAILPYFAGCL (listed as Streptococcus thermophilus) [SEQ ID N^o7]
numbers of transformants obtained with 100 μl of competent cells [1, 4]: 24 | numbers of transformants obtained with 100 μl of competent cells [1, 5]: 35 | Competence ([1]; listed as 7): YES | Competence ([1]; listed as SEQ ID No7): active competence peptide | competence after addition of the peptide to the culture ([2]; CNRZ1066, result in words): renders them competent | numbers of transformants obtained with 100 μl of competent cells ([2]; CNRZ1066, Chromosomal transforming DNA): 0 | competence after addition of the peptide to the culture ([3]; LMG18311, result in words): renders them competent | numbers of transformants obtained with 100 μl of competent cells ([3]; LMG18311, Chromosomal transforming DNA): 477
